Measurements as given in US12679842B2, “HCK as a therapeutic target in MYD88 mutated diseases” (Dana-Farber Cancer Institute, Inc., priority 2019, dated 2026).

Key:
[1] = system: BTK C481S expressing lentiviral vector transduced BCWM.1 WM cells; experiment: CellTiter-Glo cell viability assay in BTK WT or BTK C481S transduced BCWM.1 cells; assay type: cell-based; conditions: MYD88 mutated WM cells (BCWM.1), 72 hrs, FIG. 4
[2] = system: BTK C481S expressing lentiviral vector transduced TMD8 ABC-DLBCL cells; experiment: CellTiter-Glo cell viability assay in BTK WT or BTK C481S transduced TMD8 cells; assay type: cell-based; conditions: MYD88 mutated ABC DLBCL cells (TMD8), 72 hrs, FIG. 4

CN1CCN(C2CCC(n3nc(-c4ccc(Oc5ccccc5)cc4)c4c(N)nccc43)CC2)CC1 (centres unmarked) [Compound I-4]
drug dose-response in BTK C481S expressing cells (ibrutinib resistance) [1]: overcomes BTKC481S mediated ibrutinib resistance | drug dose-response in BTK C481S expressing cells (ibrutinib resistance) [2]: overcomes BTKC481S mediated ibrutinib resistance
